pIC50: −log10 of the molar value.

Holding throughout (test): IC50 of Compound (nM) (ATP present at Km of enzyme), Table 30
What all share (assay type): biochemical

Assay [1] addresses Enzyme (kinases of Table 30) (Homo sapiens, UniProt P11309). The conditions noted are these: Pim-1(h), ATP present at Km of enzyme; read-out: IC50 of Compound, Pim-1(h).
The target in assay [2] is T1, Enzyme (kinases of Table 30) (Homo sapiens, UniProt P68400).
T1 construct: IC50 of Compound, CK2(h); other: CK2(h), ATP present at Km of enzyme
T1 sequence (P68400 whole entry): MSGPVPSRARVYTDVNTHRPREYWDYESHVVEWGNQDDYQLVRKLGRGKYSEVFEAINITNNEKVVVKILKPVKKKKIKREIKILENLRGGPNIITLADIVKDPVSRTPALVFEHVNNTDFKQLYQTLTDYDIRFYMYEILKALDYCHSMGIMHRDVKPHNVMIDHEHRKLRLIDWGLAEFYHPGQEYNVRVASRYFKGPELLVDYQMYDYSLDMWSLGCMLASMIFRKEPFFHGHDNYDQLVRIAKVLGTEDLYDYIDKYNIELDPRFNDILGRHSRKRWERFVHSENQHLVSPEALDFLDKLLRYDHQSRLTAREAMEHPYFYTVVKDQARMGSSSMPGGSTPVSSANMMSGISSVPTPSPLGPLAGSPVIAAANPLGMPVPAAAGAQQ
The note with it: CK2(h), ATP present at Km of enzyme.

In assay [3] the target is Enzyme (kinases of Table 30) (Homo sapiens, UniProt Q86V86). The note with it: Pim-3(h), ATP present at Km of enzyme; read-out: IC50 of Compound, Pim-3(h).
In assay [4] the target is Enzyme (kinases of Table 30) (Homo sapiens, UniProt Q9P1W9). The note with it: Pim-2(h), ATP present at Km of enzyme; read-out: IC50 of Compound, Pim-2(h).
Sequence of Enzyme (kinases of Table 30) (Homo sapiens, UniProt Q9P1W9) (Q9P1W9 whole entry): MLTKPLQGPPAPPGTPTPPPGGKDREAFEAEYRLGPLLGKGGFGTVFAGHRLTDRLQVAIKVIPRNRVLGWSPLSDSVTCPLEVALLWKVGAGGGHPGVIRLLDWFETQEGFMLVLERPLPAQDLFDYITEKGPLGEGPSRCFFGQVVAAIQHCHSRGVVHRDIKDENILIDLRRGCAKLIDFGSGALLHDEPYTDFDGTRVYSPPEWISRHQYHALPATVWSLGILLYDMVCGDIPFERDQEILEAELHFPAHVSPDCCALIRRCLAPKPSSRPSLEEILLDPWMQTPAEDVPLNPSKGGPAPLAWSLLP

Sequence of Enzyme (kinases of Table 30) (Homo sapiens, UniProt P11309) (P11309 whole entry): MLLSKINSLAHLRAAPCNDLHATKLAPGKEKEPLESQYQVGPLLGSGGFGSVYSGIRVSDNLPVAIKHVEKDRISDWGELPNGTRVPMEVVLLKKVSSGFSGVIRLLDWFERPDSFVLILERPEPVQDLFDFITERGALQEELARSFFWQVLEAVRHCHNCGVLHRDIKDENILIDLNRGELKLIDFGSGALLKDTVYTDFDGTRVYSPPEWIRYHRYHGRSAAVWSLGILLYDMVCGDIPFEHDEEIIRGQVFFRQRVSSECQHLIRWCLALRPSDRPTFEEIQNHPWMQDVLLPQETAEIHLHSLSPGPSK

Turning to `CN(c1nccc(/C=C2\SC(=O)NC2=O)n1)[C@H]1CCCNC1` [compound 143], the pIC50 (usually the negative decadic logarithm of the IC50, by convention in mol/L) in assay [1] was 7.70; in assay [2], 7.18; in assay [3], 8.52; in assay [4], 8.30.

For `CN(c1nccc(/C=C2\SC(=O)NC2=O)n1)C1CCCCC1` [compound 119], the pIC50 in assay [1] is 6.73; in assay [2] it was 6.75; in assay [3] it was 6.57; in assay [4], 7.80.

For `O=C1NC(=O)/C(=C/c2ccnc(N[C@H]3CCCNC3)n2)S1` [compound 144], the pIC50 was 7.11 in assay [1], 7.64 in assay [2], 8.05 in assay [3] and 7.74 in assay [4].

For the compound `O=C1NC(=O)/C(=C/c2ccnc(N3CCC(CNCc4ccncc4)CC3)n2)S1` [compound 177], the pIC50 in assay [1] is 7.02; in assay [2], 6.15; in assay [3] it was 7.66; in assay [4], 7.06.

Take `O=C1NC(=O)/C(=C/c2ccnc(N3CCC(CO)CC3)n2)S1` [compound 98]: the pIC50 was 6.69 in assay [1], 6.37 in assay [2], 6.77 in assay [3] and 6.87 in assay [4].

For `Nc1ccc2c(c1)CN(c1nccc(/C=C3\SC(=O)NC3=O)n1)CC2` [compound 90], the negative logarithm of the IC50 (pIC50) in assay [1] was 7.01; in assay [2], 6.54; in assay [3], 6.38; in assay [4], 7.05.

For the compound `CN(CC1CCNCC1)c1nccc(/C=C2\SC(=O)NC2=O)n1` [compound 151], the pIC50 is 6.61 in assay [1], 6.38 in assay [2], 6.77 in assay [3] and 7.01 in assay [4].

On to `O=C1NC(=O)/C(=C/c2ccnc(N3CCC(CNc4ccc5ccccc5n4)CC3)n2)S1` [compound 219], for which the pIC50 in assay [1] is 6.32; in assay [2] it was 6.32; in assay [3], 6.60; in assay [4] it was 6.84.

With `O=C1NC(=O)/C(=C/c2ccnc(N3CCC(CNCC4CCN4)CC3)n2)S1` (stereo not drawn) [compound 208], the pIC50 in assay [1] was 6.54; in assay [2], 6.89; in assay [3], 7.19; in assay [4] it was 7.37.

For the compound `O=C1NC(=O)/C(=C/c2ccnc(N3CCC(CNCc4cccnc4)CC3)n2)S1` [compound 176], the pIC50 was 6.31 in assay [1], 6.17 in assay [2], 7.74 in assay [3] and 6.97 in assay [4].

With `O=C1NC(=O)/C(=C/c2ccnc(NCC3CCNCC3)n2)S1` [compound 147], the negative logarithm of the IC50 (pIC50) in assay [1] was 6.59; in assay [2], 6.87; in assay [3], 7.51; in assay [4] it was 7.05.

As to `O=C1NC(=O)/C(=C/c2ccnc(N3CCc4[nH]c5ccccc5c4C3)n2)S1` [compound 91], the pIC50 in assay [1] was 6.59; in assay [2], 6.65; in assay [3], 6.00; in assay [4], 6.90.

In the case of `NCc1cccc(CNc2nccc(/C=C3\SC(=O)NC3=O)n2)c1` [compound 159], the pIC50 in assay [1] was < 6.00; in assay [3], 6.64; in assay [4], 6.98.

Take `CN1CCC(CNc2nccc(/C=C3\SC(=O)NC3=O)n2)CC1` [compound 92]: the pIC50 in assay [1] is 6.20; in assay [2], 6.73; in assay [3], 7.51; in assay [4], 6.64.

On to `CC1CC(C)CN(c2nccc(/C=C3\SC(=O)NC3=O)n2)C1` (stereo not drawn) [compound 99], for which the pIC50 in assay [1] is 6.86; in assay [3] it was 6.70; in assay [4] it was 7.74.

For the compound `O=C1NC(=O)/C(=C/c2ccnc(N3CCC(CCO)CC3)n2)S1` [compound 106], the pIC50 was 6.78 in assay [1], 6.44 in assay [2], 6.53 in assay [3] and 6.90 in assay [4].

As to `O=C1NC(=O)/C(=C/c2ccnc(N3CCC(CNCc4cccc(-c5cccs5)n4)CC3)n2)S1` [compound 205], the pIC50 in assay [1] was 7.27; in assay [3], 7.42; in assay [4] it was 6.70.

For `CCCCN(C)c1nccc(/C=C2\SC(=O)NC2=O)n1` [compound 87], the pIC50 was 6.53 in assay [1], 6.58 in assay [2], 6.58 in assay [3] and 7.10 in assay [4].
